Assays:
Test in all cases: combination Emax (second highest fraction inhibited in the dose matrix, 72 h); higher = more inhibition; extreme values may be limits of the assay
CAL-78 (Chondrosarcoma) = tested on: CAL-78 (Chondrosarcoma)
In short: (§1)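 Bliss excess equals the observed combination effect minus the expected value EA + EB − EA·EB, where EA and EB are the effects of each agent alone. Combination Emax is the second-highest inhibition within the matrix. Inhibition was scaled from CellTiter-Glo 2.0 luminescence, with 0 set by vehicle wells and 1 by blank wells, after 72 hours of two-drug dosing of cells plated in 1536-well plates.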

ES7 (Ewing's Sarcoma) = tested on: ES7 (Ewing's Sarcoma)
In short: as §1

[1] = tested on: EM-2 (Chronic Myelogenous Leukemia)
In short: as §1

[2] = tested on: COR-L23 (Non-Small Cell Lung Carcinoma)
In short: as §1

[3] = tested on: KARPAS-620 (Plasma Cell Myeloma)
In short: as §1

[4] = tested on: HT-29 (Colorectal Carcinoma)
In short: as §1

[5] = tested on: DB (B-Cell Non-Hodgkin's Lymphoma)
In short: as §1

DSH1 (Bladder Carcinoma) = tested on: DSH1 (Bladder Carcinoma)
In short: as §1

[6] = tested on: MDA-MB-231 (Breast Carcinoma)
In short: as §1

[7] = tested on: SNU-C5 (Colorectal Carcinoma)
In short: as §1

J82 (Bladder Carcinoma) = tested on: J82 (Bladder Carcinoma)
In short: as §1

[8] = tested on: SUIT-2 (Pancreatic Carcinoma)
In short: as §1

[9] = tested on: U-266 (Plasma Cell Myeloma)
In short: as §1

[10] = tested on: LU-99A (Non-Small Cell Lung Carcinoma)
In short: as §1

[11] = tested on: HCC2157 (Breast Carcinoma)
In short: as §1

[12] = tested on: CFPAC-1 (Pancreatic Carcinoma)
In short: as §1

NCI-H2369 (Mesothelioma) = tested on: NCI-H2369 (Mesothelioma)
In short: as §1

[13] = tested on: CTV-1 (T-Lymphoblastic Leukemia)
In short: as §1

[14] = tested on: KM-H2 (Hodgkin's Lymphoma)
In short: as §1

RH-1 (Ewing's Sarcoma) = tested on: RH-1 (Ewing's Sarcoma)
In short: as §1

| combination Emax [14] | SMILES | combination Emax (CAL-78 (Chondrosarcoma)) | combination Emax (ES7 (Ewing's Sarcoma)) | combination Emax [1] | combination Emax [2] | combination Emax [3] | combination Emax [4] | combination Emax [5] | combination Emax (DSH1 (Bladder Carcinoma)) | combination Emax [6] | combination Emax [7] | combination Emax (J82 (Bladder Carcinoma)) | combination Emax [8] | combination Emax [9] | combination Emax [10] | combination Emax [11] | combination Emax [12] | combination Emax (NCI-H2369 (Mesothelioma)) | combination Emax [13] | combination Emax (RH-1 (Ewing's Sarcoma)) |
| --- | --- | --- | --- | --- | --- | --- | --- | --- | --- | --- | --- | --- | --- | --- | --- | --- | --- | --- | --- | --- |
| 0.551 | COc1nnc2ccc(N3CCC(c4ccc(OCCN5CCN(C)C(=O)[C@H]5C)cc4)CC3)nn12 [AZD5153] + CN(CC[C@H](CSC1=CC=CC=C1)NC2=C(C=C(C=C2)S(=O)(=O)NC(=O)C3=CC=C(C=C3)N4CCC(CC4)[C@H](C5=CC=CC=C5C6=CC=C(C=C6)Cl)O)S(=O)(=O)C(F)(F)F)CCO [AZD4320] (first compound max 1 µM, 7x7, partner max 1 µM) | 0.8 |  | 0.988 | 0.424 |  | 0.774 |  |  |  | 0.569 | 0.397 | 0.306 |  | 0.937 | 1 | 0.401 | 0.299 | 0.933 | 0.49 |
| 0.201 | Cc1c2c(nn1C)CSCc1cc(n(C)n1)CSc1cc(c3ccccc3c1)OCCCc1c(C(=O)O)n(C)c3c-2c(Cl)ccc13 [AZD5991] + CN(C)CCCOc1ccc(-c2ccc3ncc4c(c3c2)n(C2CCOCC2)c(=O)n4C)cn1 [AZD0156] (first compound max 1 µM, 7x7, partner max 1 µM) | 0.786 | 0.726 | 0.394 |  | 1 | 0.254 | 0.974 | 0.638 | 0.351 | 0.196 | 0.22 | 0.217 | 0.919 | 0.334 | 0.98 | 0.209 | 0.208 | 0.301 | 0.666 |
| 0.608 | CC(=O)c1c(C)c2cnc(Nc3ccc(N4CCNCC4)cn3)nc2n(C2CCCC2)c1=O [Palbociclib] + CN(CC[C@H](CSC1=CC=CC=C1)NC2=C(C=C(C=C2)S(=O)(=O)NC(=O)C3=CC=C(C=C3)N4CCC(CC4)[C@H](C5=CC=CC=C5C6=CC=C(C=C6)Cl)O)S(=O)(=O)C(F)(F)F)CCO [AZD4320] (first compound max 10 µM, 7x7, partner max 1 µM) | 0.709 |  | 0.95 | 0.298 |  | 0.498 |  |  |  | 0.388 | 0.22 | 0.354 |  | 0.297 | 0.994 | 0.419 | 0.259 | 0.94 | 0.684 |
| 0.146 | C[C@@H](c1ccc2nccn2c1)n1nnc2ncc(-c3cnn(C)c3)nc21 [Savolitinib] + CN(CC[C@H](CSC1=CC=CC=C1)NC2=C(C=C(C=C2)S(=O)(=O)NC(=O)C3=CC=C(C=C3)N4CCC(CC4)[C@H](C5=CC=CC=C5C6=CC=C(C=C6)Cl)O)S(=O)(=O)C(F)(F)F)CCO [AZD4320] (first compound max 1 µM, 7x7, partner max 1 µM) | 0.457 |  | 0.971 | 0.184 |  | 0.172 |  |  |  | 0.173 | 0.604 | 0.241 |  | 0.245 | 0.934 | 0.143 | 0.114 | 0.455 | 0.488 |

Further lines, the compound ahead of its results:

| SMILES | combination Emax [14] | combination Emax (CAL-78 (Chondrosarcoma)) | combination Emax (ES7 (Ewing's Sarcoma)) | combination Emax [1] | combination Emax [2] | combination Emax [3] | combination Emax [4] | combination Emax [5] | combination Emax (DSH1 (Bladder Carcinoma)) | combination Emax [6] | combination Emax [7] | combination Emax (J82 (Bladder Carcinoma)) | combination Emax [8] | combination Emax [9] | combination Emax [10] | combination Emax [11] | combination Emax [12] | combination Emax (NCI-H2369 (Mesothelioma)) | combination Emax [13] | combination Emax (RH-1 (Ewing's Sarcoma)) |
| --- | --- | --- | --- | --- | --- | --- | --- | --- | --- | --- | --- | --- | --- | --- | --- | --- | --- | --- | --- | --- |
| CCN(CCO)CCCOc1ccc2c(Nc3cc(CC(=O)Nc4cccc(F)c4)[nH]n3)ncnc2c1 [AZD2811] + C=CCn1c(=O)c2cnc(Nc3ccc(N4CCN(C)CC4)cc3)nc2n1-c1cccc(C(C)(C)O)n1 [AZD1775] (first compound max 1 µM, partner max 1 µM) | 0.938 | 0.51 | 0.783 | 0.96 | 0.349 | 0.327 | 0.82 | 0.867 | 0.324 | 0.394 | 0.59 | 0.315 | 0.625 | 0.605 | 0.585 | 0.854 | 0.372 | 0.151 | 0.969 | 1 |
| CCN(CCO)CCCOc1ccc2c(Nc3cc(CC(=O)Nc4cccc(F)c4)[nH]n3)ncnc2c1 [AZD2811] + C[C@@H]1COCCN1C2=NC(=NC(=C2)C3(CC3)[S@](=N)(=O)C)C4=C5C=CNC5=NC=C4 [AZD6738] (first compound max 1 µM, 7x7, partner max 10 µM) | 0.766 | 0.534 | 0.865 | 0.968 | 0.511 | 0.59 | 0.829 | 0.726 | 0.673 | 0.667 | 0.755 | 0.184 | 0.575 | 0.426 | 0.659 | 0.918 | 0.399 | 0.178 | 0.84 | 1 |
| C[C@@H]1COCCN1c1cc(C2([S@](C)(=N)=O)CC2)nc(-c2ccnc3[nH]ccc23)n1 [AZD6738] + O=C(c1cc(Cc2n[nH]c(=O)c3ccccc23)ccc1F)N1CCN(C(=O)C2CC2)CC1 [Olaparib] (first compound max 10 µM, 7x7, partner max 10 µM) | 0.785 | 0.616 | 0.962 | 0.984 | 0.42 | 0.544 | 0.799 | 0.736 | 0.752 | 0.572 | 0.696 | 0.344 | 0.676 | 0.584 | 0.712 | 0.907 |  | 0.133 | 0.916 | 0.965 |
